Test results as given in patent publication US8986696B2, “Trans-capsular administration of p38 map kinase inhibitors into orthopedic joints” (DePuy Mitek, Inc., priority 2007, dated 2015).
Entries after “also recorded” stand apart in the source; their conditions may differ.

Tests used:
chondrocytes = format: cell-based
Description: (§1) Calf articular cartilage was obtained from the knee joints of eight to twelve month old animals and was processed within twenty-four hours after sacrifice. After removal of muscle and ligament, the cartilage was kept moist using phosphate buffer solution (PBS) to prevent tissue dehydration, and was aseptically peeled off from subchondral bone with a scalpel, and the cartilage pieces were further minced into smaller pieces (˜0.3-0.5×˜0.2-0.5 cm cubes). […] Chondrocytes were then enzymatically isolated from the tissue by incubation for overnight at 37° C. with gentle agitation in 0.2% collagenase in Dulbecco's modified eagle media (DMEM). After removal of tissue debris by filtration through cell strainer and the residual collagenase by 3× wash in PBS, cells were finally resuspended at a density of 2.5×10^6 cells/ml in chondrocyte medium. A 1 ml aliquot of the cell suspension was dispensed into either a 15 ml Falcon centrifuge tube or a 96 deep-well plate and centrifuged at 2000×g for five minutes. The chondrocyte pellets were incubated at 37° C. in a humidified atmosphere of 5% CO2 for two to three weeks with a medium change every other day.
(§2) As an alternative to using calf articular cartilage, a commercial Alginate Recovered Chondrocytes (ARC) system was also used (Articular Engineering, LLC (Northbrook, Ill.)). Use of the commercial system cut down on labor and time in producing chondrocyte pellet. This system produced cartilaginous tissue in vitro using bovine chondrocytes. The first step consisted of culturing chondrocytes in alginate under conditions optimal for the formation of a cell-associated matrix (CM). The second step allowed these cells with their CM, after recovery, to rapidly form and become integrated into a solid mass of cartilage on a porous insert within two weeks. This tissue is rich in cells surrounded by a cell-associated matrix that is degraded rapidly when the cells are exposed to IL-1. ARC tissues in 3 mm punches at delivery were first dispensed into a 96 deep-well plate, one punch per well, for compound treatment. The subsequent procedures were the same as those used for the chondrocyte pellets.
(§3) Chondrocyte pellets were washed once with 1 ml of Chondrocyte Stimulation Medium and equilibrated in the same medium at room temperature for fifteen to thirty minutes. Compounds were dissolved in H2O, Ethanol or dimethyl sulfoxide (DMSO) (10^−2 M) according to suppliers' instructions and further diluted with Chondrocyte Stimulation Medium to the required concentrations. DMSO concentrations in the culture media should not exceed 1%; this concentration of DMSO has no effect on cartilage proteoglycan metabolism in response to cytokines.
(§4) The pellets were first treated with compounds at desired concentrations at 37° C. for one hour and then incubated for three to five days in the absence or presence of 10 ng/ml of IL-1β. At the end of the incubation, media and pellets were harvested and frozen for further analysis. Pellets were also fixed as needed in 4% (w/v) paraformaldehyde in PBS for histology analysis.
The LDH activity was determined colorimetrically in an enzymatic test based on the conversion of lactic acid to pyruvate in the presence of chromagenic substrate tetrazolium salt INT that was reduced to formazan.

[1] = system: human tumor xenograft models; test: human tumor xenograft models; conditions: in vivo
[2] = system: IL-1β-stimulated NO production, bovine chondrocyte pellets / ARC tissues; test: chondrocyte pellet culture model: total nitrite/nitrate (NO); format: cell-based; conditions: ARC, 7.5 ng/ml IL-1, five days; JNJ 7706621 at 5 μM
Description: as §1, §2, §3, §4
Nitrate/Nitrite levels were measured using the Griess reaction (Green L. C. et al., “Analysis of Nitrate, Nitrite, and [15N]nitrate in Biological Fluids,” Anal. Biochem. 126: 131-138 (1982)) with aNitrate/Nitrite Colorimetric Assay Kit (Cayman Chemicals), the contents of which are incorporated herein by reference. The assay involved a simple two-step process. The first step involved conversion of nitrate in 50 μl of culture medium to nitrite utilizing nitrate reductase in a reaction volume of 100 μl at room temperature for two hours. The second step involved the addition of 50 μl of both Griess Reagent 1 and 2, which converted nitrite into a deep purple azo compound in ten minutes. Photometric measurement of the absorbance at 540 or 550 nm due to this azo chromophore accurately determined nitrite concentration. […]

[3] = system: IL-1β-stimulated GAG release, bovine chondrocyte pellets / ARC tissues; test: chondrocyte pellet culture model: GAG degradation; format: cell-based; conditions: ARC, 7.5 ng/ml IL-1, five days; JNJ 7706621 at 5 μM
Description: as §1, §2, §3
[…] At the end of the incubation, media and pellets were harvested and frozen for further analysis. Pellets were also fixed as needed in 4% (w/v) paraformaldehyde in PBS for histology analysis.
(§5) Glycosaminoglycan (GAG) levels in the culture media were determined by measuring the amount of polyanionic material reacting with 1,9-dimethylmethylene blue (DME) as detected by absorbance at 525 nm, using shark chondroitin sulfate as a standard. The DME blue dye-binding solution was prepared by dissolving 16 mg of DME blue in a solution containing 0.304% glycine, 0.23% sodium chloride (NaCl), 9.5 mM hydrochloric acid (HCl), pH=3.0 with absorbance at 525 equal to 0.31. Proteoglycans and proteoglycan metabolites in chondrocyte pellet were released by digesting the pellet with 125 μg/ml of papain in 0.1 M PBS, pH 6.0, 5 mM cysteine, 5 mM ethylene-diamine-tetra-acetic acid disodium salt (Na2EDTA) at 50° C. for overnight. Results are reported as either micrograms of GAG per milliliter or percent of total GAG released into culture medium.

[4] = system: IL-1β-stimulated PGE2 synthesis, bovine chondrocyte pellets / ARC tissues; test: chondrocyte pellet culture model: PGE2; format: cell-based
Description: as §1, §2, §3, §4
(§6) Prostaglandin E2 (PGE2) was measured with a STAT-Prostaglandin E2 EIA ELISA kit (Cayman Biochemicals). This assay is based on the competition between PGE2 from 50 μl samples and a PGE2-alkaline phosphatase conjugate for a limited amount of PGE2 monoclonal antibody in a reaction volume of 150 μl at room temperature for one hour. The antibody-PGE2 complex bound to a goat polyclonal anti-mouse IgG that had been previously attached to the well. After washing to remove any unbound reagents, para-nitrophenyl phosphate (pNPP) was added to the well. The product of this enzymatic reaction absorbs strongly at 412 nm. Because of the large range in response to IL-1β and other cytokines, PGE2 values were converted to log scale prior to doing t-tests.

human cancer cell lines = test: cell proliferation in culture; format: cell-based; conditions: in 9 cell lines, read-out: inhibits cell proliferation in culture IC50
[5] = system: cytokine-stimulated PGE2 synthesis, human ARC tissues; test: human ARC tissues: PGE2 synthesis; format: cell-based; conditions: for PGE2 Inhibition: TNFα stimulated responses
Protocol: as §6
(§7) ® infliximab is a monoclonal antibody against human TNFα. To test whether […]® could modulate cytokine-stimulated responses in chondrocytes, human chondrocyte pellets were first tested for an optimal concentration for cytokine stimulation. Human ARC (i.e., ARCs generated using human chondrocytes) tissues were treated with various concentrations of either TNF or IL-1 for four and five days. The culture media was collected for measurement of GAG content as described above. Other assays were performed as described above. Cytokine dosage at 5 ng/ml and treatment for five days gave a reasonable treatment window, yet was not too challenging for compound efficacy (FIG. 4).
(§8) Human ARC tissues were then treated with various concentrations of […]® in the presence or absence of either 10 ng/ml of TNFα or 5 ng/ml of IL-1β for four or five days.
(§9) The efficacy of a monoclonal antibody (mAb) against human IL-6 in inhibition of proteoglycan degradation, NO production and PGE2 synthesis on human ARC tissues stimulated with IL-6 was also tested. Human ARC tissue were treated with 12.5, 25 and 250 ng/ml of IL-6 mAb diluted into chondrocyte stimulation medium. […]

[6] = system: cytokine-stimulated GAG release, human ARC tissues; test: human ARC tissues: GAG degradation; format: cell-based
Protocol: as §5, §7, §8, §9

[7] = system: cytokine-stimulated NO production, human ARC tissues; test: human ARC tissues: NO production; format: cell-based
Protocol: Nitrate/Nitrite levels were measured using the Griess reaction (Green L. C. et al., “Analysis of Nitrate, Nitrite, and [15N]nitrate in Biological Fluids,” Anal. Biochem. 126: 131-138 (1982)) with aNitrate/Nitrite Colorimetric Assay Kit (Cayman Chemicals), the contents of which are incorporated herein by reference. The assay involved a simple two-step process. The first step involved conversion of nitrate in 50 μl of culture medium to nitrite utilizing nitrate reductase in a reaction volume of 100 μl at room temperature for two hours. The second step involved the addition of 50 μl of both Griess Reagent 1 and 2, which converted nitrite into a deep purple azo compound in ten minutes. Photometric measurement of the absorbance at 540 or 550 nm due to this azo chromophore accurately determined nitrite concentration. This assay kit cannot be used for RPMI (Roswell Park Memorial Institute) derived tissue culture medium due to interference with the colorimetric reaction.
® infliximab is a monoclonal antibody against human TNFα. To test whether […]® could modulate cytokine-stimulated responses in chondrocytes, human chondrocyte pellets were first tested for an optimal concentration for cytokine stimulation. Human ARC (i.e., ARCs generated using human chondrocytes) tissues were treated with various concentrations of either TNF or IL-1 for four and five days. […]

[8] = system: injured cartilage explants, PGE2 synthesis; test: drop tower design model: PGE2 synthesis; format: cell-based, bovine; conditions: cocktail of cytokines
Description: The device comprises a vertical rail that guides a sliding weight from 0.1 kg to 3 kg directly onto a force transducer which is situated at the bottom of the device. A sphere-shaped 2 mm indenter resting on a specimen is located at the bottom of the vertical rail. The indenter is held by a stop screw. The specimen is rigidly attached to a tissue holder underneath the indenter, to avoid side movements, the specimen is rigidly attached to the tissue holder. In this manner, the force transducer transduces a force indirectly onto the specimen. Adjusting the weight of a mass and height from which the mass drops varies the magnitude of the intended impact. For example, a weight mass (e.g., […]) held by a weight holder can be released from a height of e.g., 36 cm and dropped onto the force transducer. […]
In the first method, bovine or human PBMCs were freshly prepared using Ficoll gradient by Lampire Biological Laboratories, Inc. PBMCs in RPMI w/10% FCS at delivery were spun down at 1500 rpm for twenty minutes and the cell pellet was washed twice with 1×PBS to wash off the residual Ficoll. […] Each conditioned medium was assessed for levels of pro-inflammatory cytokines to ensure their secretion from PBMC. […]
PGE2 was measured with STAT-Prostaglandin E2 EIA ELISA kit (Cayman Biochemicals), as described in Example III above. […]

[9] = at 1 ng/ml, TNFα stimulated responses

Molecule: Nc1nc(Nc2ccc(S(N)(=O)=O)cc2)nn1C(=O)c1c(F)cccc1F [JNJ 7706621, 4-[5-Amino-1-(2,6-difluoro-benzoyl)-1H-[1,2,4]triazol-3-ylamino]-benzenesulfonamide]
- cytotoxicity to chondrocytes (LDH, words) (chondrocytes): little toxicity
- antitumor activity in human tumor xenograft models [1]: single agent antitumor activity
- NO production [2]: completely blocked
- GAG Release [3]: completely blocked
- PGE2 synthesis ([4]; ARC, 7.5 ng/ml IL-1, five days, JNJ 7706621 at 5 μM): little effect
- PGE2 Inhibition ([4]; Pellet Assay): No effect
- IC50 (human cancer cell lines): 337 ± 123 nM

Molecule: REMICADE®: monoclonal antibody against human TNFα
- TNFα-induced PGE2 synthesis ([5]; 10 ng/ml TNFα): strongly inhibited
- PGE2 Inhibition ([5]; at 1 ng/ml): 50% at 1 ng/ml
- PGE2 Inhibition ([5]; at 10 ng/ml): 100% at
- IL-1β stimulated responses (PGE2, NO, GAG; words) ([6]; 5 ng/ml IL-1β): little effect
- TNFα-induced GAG release ([6]; 10 ng/ml TNFα): strongly inhibited
- GAG Release, inhibition [6, 9]: 100% at 1 ng/ml
- TNFα-induced NO production ([7]; 10 ng/ml TNFα): strongly inhibited
- NO Inhibition [7, 9]: 100% at

Molecule: CNC(=O)[C@H](Cc1ccccc1)NC(=O)[C@H](CC(C)C)[C@H](CSc1cccs1)C(=O)NO [Batimastat]
- PGE2 synthesis, inhibition [8]: did not inhibit; also recorded: No effect
